# Data as given in patent US20090176696A1, “Methods And Compositions For Modulating An Immune Response” (priority 2006, published 2009).
# Key:
# [1] = system: KLH-specific T cell responses; assay: Adoptive transfer of TCT-treated DCs; ex vivo lymph node T cell responses; format: in vivo, BALB/c mice
# Experimental: Bone marrow-derived DCs from BALB/c mice were cultured in 2% heat inactivated normal mouse sera and 40 ng/ml recombinant GM-CSF for 12 days. DCs were harvested and cultured O/N at a concentration of 1×10^6 cells/ml. DCs were then incubated with KLH (20 μg/ml) alone, KLH (20 μg/ml) and TCT (10 μg/ml), KLH (20 μg/ml) plus Pam-3Csk (TLR2 agonist; 500 ng/ml), or with KLH (20 μg/ml) and TCT (10 μg/ml) and Pam-3Csk (500 ng/ml). After 2 hours incubation, cells were washed and injected sub-cutaneously (s.c.) into the flank of BALB/c mice (1×10^5 cells/mouse). T cell responses were assessed 14 days later from pooled local inguinal lymph node cells stimulated with antigen ex-vivo.
# Lymph node cells from each treatment group were pooled and cultured in the presence of KLH (2, 10 and 50 μg/ml) or PMA/CD3 or medium, as positive and negative controls respectively. Supernatants were collected 72 h later for cytokine analysis (IFN-γ, IL-10, IL-4 and IL-5 were evaluated by specific ELISA FIG. 12). Fresh medium was added to the wells and cells were incubated overnight. At day 4, 2 μCi of ^3H thymidine was added to each well. Plates were incubated for a further 6 hours, after which cells and ^3H incorporation was determined (FIG. 12).
# [2] = system: BMDC with CD4+ T cells from OVA TCR transgenic mice; assay: TCT pre-treated BMDC cultured with OVA and CD4+ T cells from OVA TCR Tg mice; cytokines by ELISA; format: cell-based; details: DC pre-treated with TCT 10 μg/ml for 2 hours; supernatant after 4 days
# Experimental: Dendritic cells act as antigen presenting cells and also serve to direct the induction of distinct T cell responses. Therefore, we examined the influence of TCT on dendritic cells and their ability to promote T cell responses in vitro. Bone marrow-derived dendritic cells DC (BMDC) were cultured with CD4^+ T cells (4×10^5) from OVA T cell receptor (TCR) transgenic (Tg) mice. BMDC were pre-treated with TCT (10 μg/ml) or medium only for 2 hours prior to the addition of antigen (OVA 0.2-5 μg/ml) and CD4^+ T cells purified from the spleens of OVA TCR Tg mice. OVA-specific cytokine production was measured in supernatant taken after 4 days by ELISA.
# [3] = system: Graft-versus-host disease (GVHD); assay: Parent-to-F1 hybrid graft-versus-host disease (GVHD) model; format: in vivo, BALB/c×C57Bl/6 F1 hybrid mice; details: TCT 10 μg/mouse s.c. footpad 2 hours prior to induction; day 7
# Description: Graft-versus-host disease (GVHD) is a major life-threatening complication of bone marrow transplantation, where T cells from the donor graft attack host cells leading to a condition that is only treatable using potent immunosuppressive drugs. It is possible to examine the potential of therapies for the prevention or treatment of GVHD in humans by testing their efficacy using a simple GVHD model in mice. The parent-to-F1 hybrid GVHD murine model involves the transfer of parental lymphocytes into non-conditioned F1 hybrid mice. Using this strain combination the host T cells cannot actively resist the donor cells.
# GVHD was induced by transfer of 0.5×10^7 spleen cells from donor C57BL/6 mice into the footpads of BALB/c×C57Bl/6 F1 hybrid mice. Recipient mice were injected s.c into the footpad with PBS or TCT (10 μg/mouse) 2 hours prior to induction of GVHD. After 7 days, the popliteal lymph nodes were removed, weighed and cell numbers were recorded.
# [4] = system: hamster tracheal epithelial (HTE) cells; details: isolated cultured HTE cells; cited from earlier work
# human NOD1 = target: T1, human NOD1 (Homo sapiens, UniProt Q9Y239); details: cited from earlier work
# T1 sequence (Q9Y239 1-953): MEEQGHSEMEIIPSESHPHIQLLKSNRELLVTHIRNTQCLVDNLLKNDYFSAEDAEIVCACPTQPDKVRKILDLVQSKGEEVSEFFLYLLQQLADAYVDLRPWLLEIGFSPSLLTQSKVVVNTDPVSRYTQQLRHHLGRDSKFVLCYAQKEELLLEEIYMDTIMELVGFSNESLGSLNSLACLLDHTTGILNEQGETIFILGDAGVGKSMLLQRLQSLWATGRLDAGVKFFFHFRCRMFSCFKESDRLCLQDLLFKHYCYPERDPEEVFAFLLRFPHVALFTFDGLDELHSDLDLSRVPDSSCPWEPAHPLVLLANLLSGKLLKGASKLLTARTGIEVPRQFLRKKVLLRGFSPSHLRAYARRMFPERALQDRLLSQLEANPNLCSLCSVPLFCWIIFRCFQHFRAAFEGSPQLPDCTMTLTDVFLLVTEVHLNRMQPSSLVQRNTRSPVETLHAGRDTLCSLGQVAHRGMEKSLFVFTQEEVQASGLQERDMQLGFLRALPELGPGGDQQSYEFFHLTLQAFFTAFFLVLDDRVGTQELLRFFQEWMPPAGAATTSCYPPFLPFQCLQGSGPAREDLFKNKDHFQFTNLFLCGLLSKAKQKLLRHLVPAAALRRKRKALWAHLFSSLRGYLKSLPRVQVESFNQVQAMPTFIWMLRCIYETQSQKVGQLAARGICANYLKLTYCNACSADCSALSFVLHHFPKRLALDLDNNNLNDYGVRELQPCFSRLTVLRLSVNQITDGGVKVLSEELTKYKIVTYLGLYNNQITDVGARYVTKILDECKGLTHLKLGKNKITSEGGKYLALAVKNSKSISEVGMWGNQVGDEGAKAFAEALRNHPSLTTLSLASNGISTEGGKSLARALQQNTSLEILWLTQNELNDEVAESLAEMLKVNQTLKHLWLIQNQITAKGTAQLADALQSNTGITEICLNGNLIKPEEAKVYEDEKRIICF
# [5] = DCs treated with KLH and Pam-3Csk, also treated with TCT
# [6] = KLH treated DCs also treated with TCT
smiles,measurement,setting,value
"CC(=O)NC1C(OC2C3COC(O3)C(NC(C)=O)C2OC(C)C(=O)NC(C)C(=O)NC(CCC(=O)NC(CCCC(N)C(=O)NC(C)C(=O)O)C(=O)O)C(=O)O)OC(CO)C(O)C1O (stereo not shown) [TCT, N-acetylglucosaminyl-1,6-anhydro-N-acetylmuramylalanyl-γ-glutamyldiaminopimelylalanine]","antigen-specific IFN-gamma production, lymph node cells",[1]; [5],completely abolished
same,"antigen-specific IL-10 production, lymph node cells",[1]; [5],completely abolished
same,"KLH-specific IFN-gamma production, lymph node cells",[1]; DCs treated with TCT and KLH,"No KLH-specific IFN-gamma, IL-10 and IL-4 production was detected"
same,KLH-specific proliferation by lymph node cells,[1]; DCs treated with TCT and Pam-3Csk with KLH vs Pam-3Csk with KLH,profound impairment
same,"antigen-specific IL-4 production, lymph node cells",[1]; [6],abolished
same,"antigen-specific IL-10 production, lymph node cells",[1]; [6],abolished
same,proliferation by lymph node cells,[1]; KLH treated DCs also treated with TCT vs KLH treated DCs alone,almost abolished
same,"Antigen-specific IL-5 production, LN cells",[1]; all treatment groups,not above background concentrations
same,OVA-specific IFN-γ production,[2],did not affect
same,OVA-specific IL-4 production,[2],significantly reduced
same,OVA-specific IL-5 production,[2],significantly reduced
same,OVA-specific IL-13 production,[2],significantly reduced
same,total cells counts in the lymph node of the recipient mice,[3],significantly reduced
same,weight of the lymph node of the recipient mice,[3],significantly reduced
same,DNA synthesis,[4],inhibit DNA synthesis
same,NOD1 detection of TCT,human NOD1,poorly detected
